According to US10870652B2, “Compounds and methods for modulating bruton's tyrosine kinase” (CORVUS PHARMACEUTICALS, INC., priority 2016, dated 2020):

Experiments:
Type in all cases: biochemical
BTK = BTK (Homo sapiens, UniProt Q06187); assay: BTK IC50 kinase inhibition assay
ITK = target: T1, ITK (Homo sapiens, UniProt Q08881); assay: ITK IC50 kinase inhibition assay
T1 sequence (Q08881 1-620): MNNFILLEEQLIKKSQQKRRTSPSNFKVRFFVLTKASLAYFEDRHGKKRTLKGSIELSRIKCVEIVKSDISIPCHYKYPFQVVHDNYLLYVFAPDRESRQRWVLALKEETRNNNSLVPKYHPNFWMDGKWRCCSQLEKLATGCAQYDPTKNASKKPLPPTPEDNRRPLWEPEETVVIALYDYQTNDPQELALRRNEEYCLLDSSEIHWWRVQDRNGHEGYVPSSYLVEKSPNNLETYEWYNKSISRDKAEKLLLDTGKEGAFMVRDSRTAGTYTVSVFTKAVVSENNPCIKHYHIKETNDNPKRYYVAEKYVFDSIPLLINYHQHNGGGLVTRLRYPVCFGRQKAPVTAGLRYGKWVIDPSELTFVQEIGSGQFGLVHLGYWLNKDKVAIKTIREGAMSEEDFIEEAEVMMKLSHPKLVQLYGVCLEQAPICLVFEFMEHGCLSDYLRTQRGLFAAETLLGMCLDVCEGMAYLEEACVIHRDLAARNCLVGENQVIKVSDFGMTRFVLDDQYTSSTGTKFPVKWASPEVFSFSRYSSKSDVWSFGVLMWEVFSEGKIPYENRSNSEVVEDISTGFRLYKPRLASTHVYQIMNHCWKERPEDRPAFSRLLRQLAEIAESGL

TXK = target: T2, TXK (Homo sapiens, UniProt P42681); assay: TXK IC50 kinase inhibition assay
T2 sequence (P42681 1-527): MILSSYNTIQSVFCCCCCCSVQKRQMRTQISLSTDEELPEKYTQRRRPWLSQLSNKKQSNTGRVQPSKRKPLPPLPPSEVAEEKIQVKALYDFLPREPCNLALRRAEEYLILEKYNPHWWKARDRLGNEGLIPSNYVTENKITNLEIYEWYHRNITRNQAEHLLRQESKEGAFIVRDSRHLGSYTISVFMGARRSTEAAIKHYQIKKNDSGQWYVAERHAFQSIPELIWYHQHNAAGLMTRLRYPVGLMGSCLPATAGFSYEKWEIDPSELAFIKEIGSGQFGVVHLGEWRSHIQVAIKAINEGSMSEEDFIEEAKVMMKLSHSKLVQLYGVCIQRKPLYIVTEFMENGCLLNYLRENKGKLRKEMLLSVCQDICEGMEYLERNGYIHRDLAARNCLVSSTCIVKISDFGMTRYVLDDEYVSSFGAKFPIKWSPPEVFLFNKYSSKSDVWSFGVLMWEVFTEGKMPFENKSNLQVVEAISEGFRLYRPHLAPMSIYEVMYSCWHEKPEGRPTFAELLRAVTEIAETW

JAK3 = target: T3, JAK3 (Homo sapiens, UniProt P52333); assay: JAK3 IC50 kinase inhibition assay
T3 sequence (P52333 1-1124): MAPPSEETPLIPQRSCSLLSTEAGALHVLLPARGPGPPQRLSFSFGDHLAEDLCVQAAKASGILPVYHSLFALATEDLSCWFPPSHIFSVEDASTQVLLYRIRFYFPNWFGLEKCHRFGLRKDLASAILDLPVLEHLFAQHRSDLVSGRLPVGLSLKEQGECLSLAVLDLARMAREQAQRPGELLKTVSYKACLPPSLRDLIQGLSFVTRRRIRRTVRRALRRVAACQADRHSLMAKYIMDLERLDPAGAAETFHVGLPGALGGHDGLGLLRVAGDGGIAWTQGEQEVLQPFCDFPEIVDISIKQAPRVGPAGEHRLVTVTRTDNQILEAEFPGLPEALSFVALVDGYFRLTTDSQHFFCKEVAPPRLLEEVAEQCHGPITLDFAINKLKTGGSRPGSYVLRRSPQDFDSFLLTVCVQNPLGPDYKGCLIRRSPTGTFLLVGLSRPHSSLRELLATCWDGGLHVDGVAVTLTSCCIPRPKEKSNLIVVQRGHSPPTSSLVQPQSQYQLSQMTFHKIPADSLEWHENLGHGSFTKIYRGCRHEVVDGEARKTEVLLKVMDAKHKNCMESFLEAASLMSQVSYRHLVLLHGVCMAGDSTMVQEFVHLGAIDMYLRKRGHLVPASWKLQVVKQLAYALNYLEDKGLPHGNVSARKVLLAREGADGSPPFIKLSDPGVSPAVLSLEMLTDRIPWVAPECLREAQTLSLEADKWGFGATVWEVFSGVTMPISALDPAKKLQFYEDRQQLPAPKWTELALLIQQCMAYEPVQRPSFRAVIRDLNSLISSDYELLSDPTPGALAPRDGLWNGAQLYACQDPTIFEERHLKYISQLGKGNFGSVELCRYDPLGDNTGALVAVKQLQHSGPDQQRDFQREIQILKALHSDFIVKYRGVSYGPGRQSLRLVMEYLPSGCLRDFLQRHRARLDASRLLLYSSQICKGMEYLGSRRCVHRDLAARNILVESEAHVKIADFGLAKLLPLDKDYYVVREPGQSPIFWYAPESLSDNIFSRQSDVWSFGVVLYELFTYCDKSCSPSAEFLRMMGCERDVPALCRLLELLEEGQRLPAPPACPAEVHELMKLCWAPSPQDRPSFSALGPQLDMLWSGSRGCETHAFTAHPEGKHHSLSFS

Chain of BTK (Q06187 whole entry): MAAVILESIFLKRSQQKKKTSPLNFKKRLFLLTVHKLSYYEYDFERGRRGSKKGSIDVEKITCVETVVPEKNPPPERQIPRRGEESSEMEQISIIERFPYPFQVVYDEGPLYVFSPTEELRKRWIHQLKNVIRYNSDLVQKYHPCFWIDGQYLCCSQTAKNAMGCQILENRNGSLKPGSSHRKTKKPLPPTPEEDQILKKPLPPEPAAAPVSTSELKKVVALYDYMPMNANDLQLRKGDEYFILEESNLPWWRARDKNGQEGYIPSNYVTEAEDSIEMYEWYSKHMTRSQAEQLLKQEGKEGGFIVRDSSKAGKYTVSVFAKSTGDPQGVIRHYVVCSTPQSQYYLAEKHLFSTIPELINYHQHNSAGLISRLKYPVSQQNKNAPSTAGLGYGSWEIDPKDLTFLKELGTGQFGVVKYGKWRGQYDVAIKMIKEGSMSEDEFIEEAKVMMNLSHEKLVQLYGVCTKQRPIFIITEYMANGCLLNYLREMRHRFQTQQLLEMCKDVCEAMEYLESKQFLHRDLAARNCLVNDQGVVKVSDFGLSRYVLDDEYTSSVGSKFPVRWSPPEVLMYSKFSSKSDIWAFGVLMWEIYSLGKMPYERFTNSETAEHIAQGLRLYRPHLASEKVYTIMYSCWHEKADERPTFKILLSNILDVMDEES

SMILES	IC50 (BTK) [nM]	IC50 (ITK) [nM]	IC50 (TXK) [nM]	IC50 (JAK3) [nM]
C=CC(=O)N1CCC[C@@H](n2nc(-c3ccc(Oc4ccccc4)cc3F)c3cnccc32)C1 [Compound A24, (R)-1-(3-(3-(2-fluoro-4-phenoxyphenyl)-1H-pyrazolo[4,3-c]pyridin-1-yl)piperidin-1-yl)prop-2-en-1-one]	< 100	> 500	< 100	> 500
C=CC(=O)N1CCC[C@@H](n2nc(-c3ccc(Oc4ccccc4F)cc3)c3cncnc32)C1 [Compound A40, (R)-1-(3-(3-(4-(2-fluorophenoxy)phenyl)-1H-pyrazolo[3,4-d]pyrimidin-1-yl)piperidin-1-yl)prop-2-en-1-one]	< 100	> 500	< 100	> 500
C=CC(=O)N1CCC[C@@]1(C)Cn1nc(-c2ccc(Oc3ccccc3)cc2F)c2cncnc21 [Compound A52, (S)-1-(2-((3-(2-fluoro-4-phenoxyphenyl)-1H-pyrazolo[3,4-d]pyrimidin-1-yl)methyl)-2-methylpyrrolidin-1-yl)prop-2-en-1-one]	< 100	> 500	< 100	> 500
C=CC(=O)N1CCCC[C@H]1Cn1nc(-c2ccc(Oc3ccccc3)cc2)c2cncnc21 [Compound A44, (S)-1-(2-((3-(4-phenoxyphenyl)-1H-pyrazolo[3,4-d]pyrimidin-1-yl)methyl)piperidin-1-yl)prop-2-en-1-one]	< 100	> 500	100 to 500	> 500
C=CC(=O)N1CC[C@@H](n2nc(-c3ccc(Oc4ccccc4)cc3)c3cncc(C#N)c32)C1 [Compound A73, (R)-1-(1-acryloylpyrrolidin-3-yl)-3-(4-phenoxyphenyl)-1H-pyrazolo[4,3-c]pyridine-7-carbonitrile]	< 100	> 500	< 100	> 500
C=CC(=O)NCCn1nc(-c2ccc(Oc3ccccc3)cc2)c2cncnc21 [Compound A42, N-(2-(3-(4-phenoxyphenyl)-1H-pyrazolo[3,4-d]pyrimidin-1-yl)ethyl)acrylamide]	100 to 500	> 500	> 500	> 500
C=CC(=O)N1CCC[C@H]1Cn1nc(-c2ccc(Oc3ccccc3)cc2)c2cncc(C#N)c21 [Compound A74, (S)-1-((1-Acryloylpyrrolidin-2-yl)methyl)-3-(4-phenoxyphenyl)-1H-pyrazolo[4,3-c]pyridine-7-carbonitrile]	< 100	> 500	> 500	> 500
CC#CC(=O)N1CCC[C@H]1c1nc(-c2ccc(Oc3ccccc3)cc2)c2cnccn12 [Compound A31, (S)-1-(2-(1-(4-phenoxyphenyl)imidazo[1,5-a]pyrazin-3-yl)pyrrolidin-1-yl)but-2-yn-1-one]	> 500	> 500	> 500	> 500
CC#CC(=O)N1CC[C@@H]1Cn1nc(-c2ccc(Oc3ccccc3)cc2)c2cncnc21 [Compound A67, (R)-1-(2-((3-(4-phenoxyphenyl)-1H-pyrazolo[3,4-d]pyrimidin-1-yl)methyl)azetidin-1-yl)but-2-yn-1-one]	100 to 500	> 500	> 500	> 500
C=CC(=O)N1CCC[C@H]1Cn1nc(-c2ccc(Oc3ccccc3)cc2)c2cncc(F)c21 [Compound A27, (S)-1-(2-((7-fluoro-3-(4-phenoxyphenyl)-1H-pyrazolo[4,3-c]pyridin-1-yl)methyl)pyrrolidin-1-yl)prop-2-en-1-one]	< 100	> 500	< 100	> 500
C=CC(=O)N1CCC[C@@H](c2nc(-c3ccc(Oc4ccccc4)cc3)c3cnccn23)C1 [Compound A28, (R)-1-(3-(1-(4-phenoxyphenyl)imidazo[1,5-a]pyrazin-3-yl)piperidin-1-yl)prop-2-en-1-one]	< 100	> 500	< 100	> 500
C=CC(=O)N1CC[C@H](Cn2nc(-c3ccc(Oc4ccccc4)cc3)c3cncnc32)C1 [Compound A15, (S)-1-(3-((3-(4-phenoxyphenyl)-1H-pyrazolo[3,4-d]pyrimidin-1-yl)methyl)pyrrolidin-1-yl)prop-2-en-1-one]	< 100	> 500	100 to 500	> 500
C=CC(=O)N1CC[C@@H](n2nc(-c3ccc(Oc4ccccc4)cc3)c3cncnc32)C1 [Compound A6, (R)-1-(3-(3-(4-phenoxyphenyl)-1H-pyrazolo[3,4-d]pyrimidin-1-yl)pyrrolidin-1-yl)prop-2-en-1-one]	< 100	> 500	< 100	> 500
C=CC(=O)N1CCC[C@@H](n2nc(-c3ccc(Oc4ccccc4)cc3C#N)c3cncnc32)C1 [Compound A33, (R)-2-(1-(1-acryloylpiperidin-3-yl)-H-pyrazolo[3,4-d]pyrimidin-3-yl)-5-phenoxybenzonitrile]	100 to 500	> 500	> 500	> 500
C=CC(=O)N1CCC[C@H]1Cn1nc(-c2ccc(Oc3ccccc3)cc2)c2cnccc21 [Compound A22, (S)-1-(2-((3-(4-phenoxyphenyl)-1H-pyrazolo[4,3-c]pyridin-1-yl)methyl)pyrrolidin-1-yl)prop-2-en-1-one]	< 100	> 500	< 100	> 500
C=CC(=O)N1CCC[C@@H](n2nc(-c3ccc(Oc4ccccc4)c(C)c3)c3cncnc32)C1 [Compound A5, (R)-1-(3-(3-(3-methyl-4-phenoxyphenyl)-1H-pyrazolo[3,4-d]pyrimidin-1-yl)piperidin-1-yl)prop-2-en-1-one]	< 100	> 500	100 to 500	> 500
CC#CC(=O)N1CCC(n2nc(-c3ccc(Oc4ccccc4)cc3)c3cncnc32)CC1 [Compound A59, 1-(4-(3-(4-phenoxyphenyl)-1H-pyrazolo[3,4-d]pyrimidin-1-yl)piperidin-1-yl)but-2-yn-1-one]	100 to 500	> 500	> 500	> 500
C=CC(=O)N1CC[C@@H](c2nc(-c3ccc(Oc4ccccc4)cc3)c3cnccn23)C1 [Compound A30, (R)-1-(3-(1-(4-phenoxyphenyl)imidazo[1,5-a]pyrazin-3-yl)pyrrolidin-1-yl)prop-2-en-1-one]	< 100	> 500	< 100	> 500
